# Patent publication US20020183362A1, “2-Fluorobenzenesulfonyl compounds for the treatment of inflammation” (Pharmacia Corporation, priority 2000, published 2002)
# Columns and labels:
# Human COX-1 [1] = biological target: T1, Human COX-1 (Homo sapiens, UniProt P23219); assay: Fast assay for COX-1 and COX-2 activity (PGE2 ELISA), COX-1; assay type: biochemical; conditions: Table II, pre-incubated 10 minutes at 25° C., arachidonic acid 10 μM, stopped after two minutes, pH 7.5
# T1 construct: A 2.0 kb fragment containing the coding region of either human or murine COX-1 or human or murine COX-2; made in house; host or cells: SF9 insect cells (baculovirus, transfer vector pVL1393)
# T1 sequence (P23219 24-599): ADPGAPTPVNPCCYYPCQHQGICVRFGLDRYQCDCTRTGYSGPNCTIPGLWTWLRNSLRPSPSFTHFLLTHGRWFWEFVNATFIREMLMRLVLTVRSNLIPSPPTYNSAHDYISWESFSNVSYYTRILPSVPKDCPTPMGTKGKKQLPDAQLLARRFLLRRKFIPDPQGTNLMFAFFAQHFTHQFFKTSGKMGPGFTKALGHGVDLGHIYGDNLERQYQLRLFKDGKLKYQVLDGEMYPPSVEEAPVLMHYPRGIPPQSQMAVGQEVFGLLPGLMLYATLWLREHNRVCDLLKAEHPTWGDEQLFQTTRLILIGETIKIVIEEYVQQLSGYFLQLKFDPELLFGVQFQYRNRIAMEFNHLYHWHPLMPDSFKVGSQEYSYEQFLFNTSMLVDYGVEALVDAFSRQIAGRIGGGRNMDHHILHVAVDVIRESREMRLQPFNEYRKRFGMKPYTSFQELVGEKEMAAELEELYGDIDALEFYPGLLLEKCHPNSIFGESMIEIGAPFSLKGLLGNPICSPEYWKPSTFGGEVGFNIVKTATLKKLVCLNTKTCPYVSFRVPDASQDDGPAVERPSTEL
# Protocol: (§1) Recombinant baculoviruses were isolated by transfecting 4 μg of baculovirus transfer vector DNA into SF9 insect cells (2×10^8) along with 200 ng of linearized baculovirus plasmid DNA by the calcium phosphate method. See M. D. Summers and G. E. Smith, A Manual of Methods for Baculovirus Vectors and Insect Cell Culture Procedures, Texas Agric. Exp. Station Bull. […] Recombinant viruses were purified by three rounds of plaque purification and high titer (10^7-10^8 pfu/mL) stocks of virus were prepared. For large scale production, SF9 insect cells were infected in 10 liter fermentors (0.5×10^6/mL) with the recombinant baculovirus stock such that the multiplicity of infection was 0.1. After 72 hours the cells were centrifuged and the cell pellet homogenized in Tris/Sucrose (50 mM: 25%, pH 8.0) containing 1% 3-[(3-cholamidopropyl)dimethylammonio]-1-propanesulfonate (CHAPS). The homogenate was centrifuged at 10,000×G for 30 minutes, and the resultant supernatant was stored at −80° C. before being assayed for COX activity.
# COX activity was assayed as PGE2 formed/μg protein/time using an ELISA to detect the prostaglandin released. CHAPS-solubilized insect cell membranes containing the appropriate COX enzyme were incubated in a potassium phosphate buffer (0.05 M Potassium phosphate, pH 7.5, 2 μM phenol, 1 μM heme, 300 μM epinephrine) with the addition of 20 μl of 100 μM arachidonic acid (10 μM). Compounds were pre-incubated with the enzyme for 10 minutes at 25° C. prior to the addition of arachidonic acid. […] The PGE2 formed was measured by standard ELISA technology (Cayman Chemical).
# Human COX-2 [2] = biological target: T2, Human COX-2 (Homo sapiens, UniProt P35354); assay: Assay for COX-1 and COX-2 activity (PGE2 ELISA, recombinant enzyme), COX-2; assay type: biochemical; conditions: Table I; pre-incubated 10-20 minutes, arachidonic acid 10 μM, stopped after ten minutes, pH 8.0
# T2 construct: A 2.0 kb fragment containing the coding region of either human or murine COX-1 or human or murine COX-2; made in house; host or cells: SF9 insect cells (baculovirus, transfer vector pVL1393)
# T2 sequence (P35354 18-604): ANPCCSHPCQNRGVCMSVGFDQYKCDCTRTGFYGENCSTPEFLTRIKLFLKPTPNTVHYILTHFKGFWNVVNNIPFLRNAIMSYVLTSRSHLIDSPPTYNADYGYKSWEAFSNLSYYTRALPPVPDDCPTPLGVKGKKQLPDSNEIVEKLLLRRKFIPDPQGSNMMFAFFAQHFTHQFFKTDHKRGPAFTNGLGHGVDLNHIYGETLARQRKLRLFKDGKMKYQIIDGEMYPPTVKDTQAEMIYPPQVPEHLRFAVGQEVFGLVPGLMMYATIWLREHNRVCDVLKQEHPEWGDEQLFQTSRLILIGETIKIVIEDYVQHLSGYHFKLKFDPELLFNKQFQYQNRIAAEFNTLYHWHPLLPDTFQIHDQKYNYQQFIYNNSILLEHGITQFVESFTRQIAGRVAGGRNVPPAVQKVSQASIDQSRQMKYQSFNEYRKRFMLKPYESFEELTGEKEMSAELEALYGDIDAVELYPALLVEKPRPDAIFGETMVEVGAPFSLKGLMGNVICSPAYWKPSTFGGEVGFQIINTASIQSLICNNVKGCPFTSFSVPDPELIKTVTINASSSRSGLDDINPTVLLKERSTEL
# Protocol: The COX-2 inhibition activity of the compounds of this invention illustrated in the Examples was determined by the following methods.
# (§2) Recombinant COX-1 and COX-2 were prepared as described by Gierse et al, [[…]., 305, 479-84 (1995)]. A 2.0 kb fragment containing the coding region of either human or murine COX-1 or human or murine COX-2 was cloned into a BamH1 site of the baculovirus transfer vector pVL1393 (Invitrogen) to generate the baculovirus transfer vectors for COX-1 and COX-2 in a manner similar to the method of D. R. O'Reilly et al (Baculovirus Expression Vectors: A Laboratory Manual (1992)). Recombinant baculoviruses were isolated by transfecting 4 μg of baculovirus transfer vector DNA into SF9 insect cells (2×10^8) along with 200 ng of linearized baculovirus plasmid DNA by the calcium phosphate method. See M. D. Summers and G. E. Smith, A Manual of Methods for Baculovirus Vectors and Insect Cell Culture Procedures, Texas Agric. Exp. Station Bull. 1555 (1987). Recombinant viruses were purified by three rounds of plaque purification and high titer (10^7-10^8 pfu/mL) stocks of virus were prepared. For large scale production, SF9 insect cells were infected in 10 liter fermentors (0.5×10^6/mL) with the recombinant baculovirus stock such that the multiplicity of infection was 0.1. After 72 hours the cells were centrifuged and the cell pellet homogenized in Tris/Sucrose (50 mM: 25%, pH 8.0) containing 1% 3-[(3-cholamidopropyl)dimethylammonio]-1-propanesulfonate (CHAPS). The homogenate was centrifuged at 10,000×G for 30 minutes, and the resultant supernatant was stored at −80° C. before being assayed for COX activity.
# (§3) COX activity was assayed as PGE2 formed/μg protein/time using an ELISA to detect the prostaglandin released. CHAPS-solubilized insect cell membranes containing the appropriate COX enzyme were incubated in a potassium phosphate buffer (50 mM, pH 8.0) containing epinephrine, phenol, and heme with the addition of arachidonic acid (10 μM). Compounds were pre-incubated with the enzyme for 10-20 minutes prior to the addition of arachidonic acid. Any reaction between the arachidonic acid and the enzyme was stopped after ten minutes at 37° C./room temperature by transferring 40 μl of reaction mix into 160 μELISA buffer and 25 μM indomethacin. The PGE2 formed was measured by standard ELISA technology (Cayman Chemical).
# Human COX-1 [3] = biological target: T1, Human COX-1; assay: Assay for COX-1 and COX-2 activity (PGE2 ELISA, recombinant enzyme), COX-1; assay type: biochemical; conditions: Table I; pre-incubated 10-20 minutes, arachidonic acid 10 μM, stopped after ten minutes, pH 8.0
# Protocol: as §1
# as §3, with “Any reaction between the arachidonic acid and the enzyme was stopped after ten minutes at 37° C./room temperature by transferring 40 μl of reaction mix into 160 μELISA buffer and 25 μM indomethacin.” left out
# Human COX-2 [4] = biological target: T2, Human COX-2; assay: Fast assay for COX-1 and COX-2 activity (PGE2 ELISA), COX-2; assay type: biochemical; conditions: Table II, pre-incubated 10 minutes at 25° C., arachidonic acid 10 μM, stopped after two minutes, pH 7.5
# Protocol: as §2
# COX activity was assayed as PGE2 formed/μg protein/time using an ELISA to detect the prostaglandin released. CHAPS-solubilized insect cell membranes containing the appropriate COX enzyme were incubated in a potassium phosphate buffer (0.05 M Potassium phosphate, pH 7.5, 2 μM phenol, 1 μM heme, 300 μM epinephrine) with the addition of 20 μl of 100 μM arachidonic acid (10 μM). Compounds were pre-incubated with the enzyme for 10 minutes at 25° C. prior to the addition of arachidonic acid. Any reaction between the arachidonic acid and the enzyme was stopped after two minutes at 37° C./room temperature by transferring 40 μl of reaction mix into 160 μl ELISA buffer and 25 μM indomethacin. The PGE2 formed was measured by standard ELISA technology (Cayman Chemical).
IC50 (Human COX-1 [1]),IC50 (Human COX-2 [2]),melting point,IC50 (Human COX-1 [3]),IC50 (Human COX-2 [4]),SMILES
29400 nM,11 nM,170.9 to 171 °C,37900 nM,13 nM,"NS(=O)(=O)c1ccc(-c2cscc2-c2ccccc2)cc1F [Example 1, 2-Fluoro-4-(4-phenyl-3-thienyl)benzenesulfonamide]"
> 100000 nM,51 nM,140 to 141 °C,> 100000 nM,43 nM,"CS(=O)(=O)c1ccc(-c2cscc2-c2ccccc2)cc1F [Example 2, 3-[3-Fluoro-4-(methylsulfonyl)phenyl]-4-phenylthiophene]"
26900 nM,5 nM,160 to 161 °C,16300 nM,4 nM,"Cc1ccc(-c2cc(C(F)F)nn2-c2ccc(S(N)(=O)=O)c(F)c2)cc1Cl [Example 3, 4-[5-(3-chloro-4-methylphenyl)-3-(difluoromethyl)-1H-pyrazol-1-yl]-2-fluorobenzenesulfonamide]"
22600 nM,150 nM,228 to 229 °C,> 100000 nM,130 nM,"CS(=O)(=O)c1ccc(-c2cc(C(F)(F)F)nn2-c2ccc(F)cc2)cc1F [Example 11, 5-[3-Fluoro-4-(methylsulfonyl)phenyl]-1-(4-fluorophenyl)-3-(trifluoromethyl)-1H-pyrazole]"
> 100000 nM,180 nM,228 to 229 °C,> 100000 nM,140 nM,"CS(=O)(=O)c1ccc(-c2cc(C(F)(F)F)nn2C2CCCCC2)cc1F [Example 12, 1-Cyclohexyl-5-[3-fluoro-4-(methylsulfonyl)phenyl]-3-(trifluoromethyl)-1H-pyrazole]"
> 100000 nM,180 nM,,> 100000 nM,150 nM,"CS(=O)(=O)c1ccc(-c2cc(C(F)(F)F)nn2-c2cccc(C(F)(F)F)c2)cc1F [Example 13, 5-[3-Fluoro-4-(methylsulfonyl)phenyl]-3-(trifluoromethyl)-1-[3-(trifluoromethyl)phenyl]-1H-pyrazole]"
> 100000 nM,62 nM,110 to 112 °C,> 100000 nM,64 nM,"CS(=O)(=O)c1ccc(-c2cc(C(F)(F)F)nn2-c2ccc(OC(F)(F)F)cc2)cc1F [Example 14, 5-[3-Fluoro-4-(methylsulfonyl)phenyl]-3-(trifluoromethyl)-1-[4-(trifluoromethoxy)phenyl]-1H-pyrazole]"
2360 nM,16 nM,144 to 145 °C,> 100000 nM,15 nM,"Cc1ccc(-n2nc(C(F)(F)F)cc2-c2ccc(S(C)(=O)=O)c(F)c2)cc1Cl [Example 15, 1-(3-Chloro-4-methylphenyl)-5-[3-fluoro-4-(methylsulfonyl)phenyl]-3-(trifluoromethyl)-1H-pyrazole]"
> 100000 nM,250 nM,152 to 153 °C,> 100000 nM,870 nM,"CS(=O)(=O)c1ccc(-c2cc(C(F)(F)F)nn2-c2ccc(C#N)cc2)cc1F [Example 16, 4-[5-[3-Fluoro-4-(methylsulfonyl)Phenyl]-3-(trifluoromethyl)-1H-Pyrazol-1-yl]benzonitrile]"
4360 nM,1050 nM,129 to 130 °C,> 100000 nM,27 nM,"Cc1cccc(-n2nc(C(F)(F)F)cc2-c2ccc(S(C)(=O)=O)c(F)c2)c1 [Example 17, 5-[3-Fluoro-4-(methylsulfonyl)phenyl]-1-(3-methylphenyl)-3-(trifluoromethyl)-1H-pyrazole]"
> 100000 nM,320 nM,,> 100000 nM,310 nM,"CS(=O)(=O)c1ccc(-c2cc(C(F)F)nn2-c2ccc(F)cc2)cc1F [Example 18, 3-(Difluoromethyl)-5-[3-fluoro-4-(methylsulfonyl)phenyl]-1-(4-fluorophenyl)-1H-pyrazole]"
> 100000 nM,700 nM,,> 100000 nM,340 nM,"CS(=O)(=O)c1ccc(-c2cc(C(F)F)nn2C2CCCCC2)cc1F [Example 19, 1-Cyclohexyl-3-(difluoromethyl)-5-[3-fluoro-4-(methylsulfonyl)phenyl]-1H-pyrazole]"
> 100000 nM,36 nM,,> 100000 nM,53 nM,"Cc1ccc(-n2nc(C(F)F)cc2-c2ccc(S(C)(=O)=O)c(F)c2)cc1Cl [Example 20, 1-(3-Chloro-4-methylphenyl)-3-(difluoromethyl)-5-[3-fluoro-4-(methylsulfonyl)phenyl]-1H-pyrazole]"
> 100000 nM,550 nM,,> 100000 nM,290 nM,CS(=O)(=O)c1ccc(-c2cc(C(F)F)nn2-c2cccc(C(F)(F)F)c2)cc1F [Example 21]
> 100000 nM,15 nM,176 to 177 °C,> 100000 nM,5 nM,"Cc1onc(-c2ccc(F)cc2)c1-c1ccc(S(N)(=O)=O)c(F)c1 [Example 22, 2-Fluoro-4-[3-(4-fluorophenyl)-5-methyl-4-isoxazolyl]-benzenesulfonamide]"
> 100000 nM,15900 nM,161 to 162 °C,> 100000 nM,3730 nM,CS(=O)(=O)c1ccc(C2=C(c3ccccc3)C(=O)OC2)cc1F [Example 24]
